The values that follow come from patent US12528761B2, “Thyromimetics” (Autobahn Therapeutics, Inc., priority 2020, dated 2026).

The structures appear in SMILES notation.

This assay deals with T1, recombinant human FAAH (rhFAAH) (Homo sapiens, UniProt O00519).
T1 construct: purchased Cayman Chemical (Ann Arbor, MI, USA)
T1 sequence (O00519 1-579): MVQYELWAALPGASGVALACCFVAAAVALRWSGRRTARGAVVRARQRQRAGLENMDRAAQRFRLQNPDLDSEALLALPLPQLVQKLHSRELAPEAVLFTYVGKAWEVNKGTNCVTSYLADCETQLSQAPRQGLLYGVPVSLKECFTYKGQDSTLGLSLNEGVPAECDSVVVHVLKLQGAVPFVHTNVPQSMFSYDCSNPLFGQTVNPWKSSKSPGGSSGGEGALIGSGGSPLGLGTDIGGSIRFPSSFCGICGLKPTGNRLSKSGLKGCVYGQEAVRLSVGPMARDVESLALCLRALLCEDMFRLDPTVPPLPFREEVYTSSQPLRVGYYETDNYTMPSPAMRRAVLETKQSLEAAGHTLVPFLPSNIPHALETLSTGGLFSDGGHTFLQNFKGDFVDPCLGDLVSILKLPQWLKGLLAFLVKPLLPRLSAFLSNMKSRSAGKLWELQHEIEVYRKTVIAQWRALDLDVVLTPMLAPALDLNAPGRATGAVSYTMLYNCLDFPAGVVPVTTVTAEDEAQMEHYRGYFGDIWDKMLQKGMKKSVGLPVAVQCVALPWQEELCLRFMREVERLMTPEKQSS
In words: FAAH substrate evaluation (formation of acid metabolite, LC-MS/MS). The class given is biochemical. On the set-up: key: A: ke is equal to or less than 1.0; B: ke is greater than 1.0 and less than or equal to 2.5; C: ke is greater than 2.5; NC: no conversion. The following applies: 0.5 ng/μL rhFAAH, 1 μM test compound, pH 8.0, room temperature, 0-60 minutes. The procedure: Purified recombinant human FAAH (rhFAAH) was purchased from Cayman Chemical (Ann Arbor, MI, USA). The total volume for each incubation was 400 μL containing a final 0.5 ng/μL rhFAAH, 1 μM test compound, 1.25% ethanol or 1 μM PF-3845 (FAAH inhibitor), and 0.1% bovine serum albumin in Tris-EDTA buffer at pH 8.0). The positive control was LL-341001. The incubation was conducted at the room temperature. At 0, 5, 15, 30 and 60 minutes, an aliquot of 30 μL reaction mixtures was removed and mixed with 300 μL acetonitrile containing 5 ng/mL terfenadine and 10 ng/mL tolbutamide as internal standards to quench the reaction. The resulting mixture was centrifuged at 4000 rpm, 4° C. for 15 minutes, and 100 μL supernatant was ready for LC-MS/MS analysis to measure the formation of acid metabolite.
Acquity Ultra Performance LC system from Waters was used for sample analysis. The chromatography was performed on a reverse phase Kinetex 2.6 μm C18 column, 2.1×30 mm, 100 Å. The mobile phase A comprised of 0.1% formic acid in water and mobile phase B comprised of 0.1% formic acid in acetonitrile with a 2-min run time at the flow rate of 0.8 mL/min for the acid metabolite from positive control or a 1.5 min run time at the flow rate of 0.9 mL/min for the acid metabolite of test compounds. The mass spectrometer (API-5500 and API Q Trap 4000 Applied Biosystems/MDS SCIEX Instruments, Framingham, MA, USA) was operated under ESI positive or negative ion MRM mode.
The formation of acid metabolite was monitored and quantified using one calibration point of 1 μM. The observed rate constant (ke) for the acid metabolite formation was calculated by plotting the metabolite concentration versus time of incubation with the slope being ke and is shown in Table 4.
`CNC(=O)Cc1cc(Cl)c(Cc2ccc(O)c(C(C)C)c2F)c(Cl)c1` [Compound 33, 2-(3,5-dichloro-4-(2-fluoro-4-hydroxy-3-isopropylbenzyl)phenyl)-N-methylacetamide]: the “ke, observed rate constant for the acid metabolite formation” value (from here on “ke, observed rate constant”) was “NC”.

With `CNC(=O)CNc1cc(Cl)c(Cc2ccc(O)c(C(C)C)c2)c(C)c1F` [Compound 216, 2-((5-chloro-2-fluoro-4-(4-hydroxy-3-isopropylbenzyl)-3-methylphenyl)amino)-N-methylacetamide], the “ke, observed rate constant” value is reported as “A (ke is equal to or less than 1.0)”. `CNC(=O)CN(C)c1cc(Cl)c(Cc2ccc(O)c(C(C)C)c2)c(Cl)c1` [Compound 149, 2-((3,5-dichloro-4-(4-hydroxy-3-isopropylbenzyl)phenyl)(methyl)amino)-N-methylacetamide]: the “ke, observed rate constant” value was “NC”. Regarding `CC(C)c1cc(Cc2c(Cl)cc(SCC(=O)Nc3cccnn3)cc2Cl)ccc1O` [Compound 174, 2-((3,5-dichloro-4-(4-hydroxy-3-isopropylbenzyl)phenyl)thio)-N-(pyridazin-3-yl)acetamide], the “ke, observed rate constant” value was “C (ke is greater than 2.5)”.

For `CNC(=O)CNc1cc(C)c(Cc2ccc(O)c(C(C)C)c2F)c(Cl)c1` [Compound 235, 2-((3-chloro-4-(2-fluoro-4-hydroxy-3-isopropylbenzyl)-5-methylphenyl)amino)-N-methylacetamide], the “ke, observed rate constant” value is listed as “A (ke is equal to or less than 1.0)”. On to `CCNC(=O)CSc1cc(Cl)c(Cc2ccc(O)c(C(C)C)c2)c(Cl)c1F` [Compound 189, 2-((3,5-dichloro-2-fluoro-4-(4-hydroxy-3-isopropylbenzyl)phenyl)thio)-N-ethylacetamide], for which the “ke, observed rate constant” value was “A (ke is equal to or less than 1.0)”. In the case of `CC(C)c1cc(Cc2c(Cl)cc(CSCC(=O)N(C)C)cc2Cl)ccc1O` [Compound 191, 2-((3,5-dichloro-4-(4-hydroxy-3-isopropylbenzyl)benzyl)thio)-N,N-dimethylacetamide], the “ke, observed rate constant” value is on record as “NC”. On to `CCNC(=O)CNc1cc(Cl)c(Cc2ccc(O)c(C(C)C)c2F)c(Cl)c1F` [Compound 165, 2-((3,5-dichloro-2-fluoro-4-(2-fluoro-4-hydroxy-3-isopropylbenzyl)phenyl)amino)-N-ethylacetamide], for which the “ke, observed rate constant” value is given as “A (ke is equal to or less than 1.0)”. As for `CC(C)c1cc(Cc2c(Cl)cc(SCC(N)=O)cc2Cl)ccc1O` [Compound 179, 2-((3,5-dichloro-4-(4-hydroxy-3-isopropylbenzyl)phenyl)thio)acetamide], the “ke, observed rate constant” value was “C (ke is greater than 2.5)”. On to `Cc1cc(CSCC(=O)N2CCC2)cc(Cl)c1Cc1ccc(O)c(C(C)C)c1` [Compound 228, 1-(azetidin-1-yl)-2-((3-chloro-4-(4-hydroxy-3-isopropylbenzyl)-5-methylbenzyl)thio)ethan-1-one], for which the “ke, observed rate constant” value is on record as “A (ke is equal to or less than 1.0)”.

Take `CNC(=O)/C(C)=C/c1cc(C)c(Cc2ccc(O)c(C(C)C)c2F)c(Cl)c1` [Compound 238, (E)-3-(3-chloro-4-(2-fluoro-4-hydroxy-3-isopropylbenzyl)-5-methylphenyl)-N,2-dimethylacrylamide]: the “ke, observed rate constant” value was “B (ke is greater than 1.0 and less than or equal to 2.5)”.

Regarding `CC(C)c1c(O)ccc(Cc2c(Cl)cc(NCC(=O)N(C)C)c(F)c2Cl)c1F` [Compound 166, 2-((3,5-dichloro-2-fluoro-4-(2-fluoro-4-hydroxy-3-isopropylbenzyl)phenyl)amino)-N,N-dimethylacetamide], the “ke, observed rate constant” value is “NC”. Take `CC(C)c1cc(Cc2c(Cl)cc(SCC(=O)NC3CC3)cc2Cl)ccc1O` [Compound 180, N-cyclopropyl-2-((3,5-dichloro-4-(4-hydroxy-3-isopropylbenzyl)phenyl)thio)acetamide]: the “ke, observed rate constant” value is “C (ke is greater than 2.5)”. For the compound `CNC(=O)CNc1cc(C)c(Cc2ccc(O)c(C(C)C)c2)c(Cl)c1` [Compound 240, 2-((3-chloro-4-(4-hydroxy-3-isopropylbenzyl)-5-methylphenyl)amino)-N-methylacetamide], the “ke, observed rate constant” value is on record as “NC”. Turning to `CC(C)c1cc(Cc2c(Cl)cc(SCC(=O)Nc3ccnnc3)cc2Cl)ccc1O` [Compound 173, 2-((3,5-dichloro-4-(4-hydroxy-3-isopropylbenzyl)phenyl)thio)-N-(pyridazin-4-yl)acetamide], the “ke, observed rate constant” value is reported as “C (ke is greater than 2.5)”. The entry for `Cc1noc(NC(=O)CSc2cc(Cl)c(Cc3ccc(O)c(C(C)C)c3)c(Cl)c2)c1C` [Compound 168, 2-((3,5-dichloro-4-(4-hydroxy-3-isopropylbenzyl)phenyl)thio)-N-(3,4-dimethylisoxazol-5-yl)acetamide] is “B (ke is greater than 1.0 and less than or equal to 2.5)”; for `CON(C)C(=O)/C(C)=C/c1cc(Cl)c(Cc2ccc(O)c(C(C)C)c2F)c(Cl)c1` [Compound 122, (E)-3-(3,5-dichloro-4-(2-fluoro-4-hydroxy-3-isopropylbenzyl)phenyl)-N-methoxy-N,2-dimethylacrylamide] it is “A (ke is equal to or less than 1.0)”; for `CNC(=O)CNc1cc(Cl)c(Cc2ccc(O)c(C(C)C)c2F)c(Cl)c1F` [Compound 79, 2-((3,5-dichloro-2-fluoro-4-(2-fluoro-4-hydroxy-3-isopropylbenzyl)phenyl)amino)-N-methylacetamide] it is “A (ke is equal to or less than 1.0)”. Then `CC(C)c1cc(Cc2c(Cl)cc(SCC(=O)Nc3cccnc3)cc2Cl)ccc1O` [Compound 170, 2-((3,5-dichloro-4-(4-hydroxy-3-isopropylbenzyl)phenyl)thio)-N-(pyridin-3-yl)acetamide], with “C (ke is greater than 2.5)”.

As to `CC(C)c1c(O)ccc(Cc2c(Cl)cc(CC(=O)N(C)C)cc2Cl)c1F` [Compound 34, 2-(3,5-dichloro-4-(2-fluoro-4-hydroxy-3-isopropylbenzyl)phenyl)-N,N-dimethylacetamide], the “ke, observed rate constant” value was “NC”. Regarding `CNC(=O)CSCc1cc(Cl)c(Cc2ccc(O)c(C(C)C)c2)c(Cl)c1` [Compound 193, 2-((3,5-dichloro-4-(4-hydroxy-3-isopropylbenzyl)benzyl)thio)-N-methylacetamide], the “ke, observed rate constant” value was “NC”. As for `Cc1cc(CSCC(=O)Nc2cccnn2)cc(Cl)c1Cc1ccc(O)c(C(C)C)c1` [Compound 230, 2-((3-chloro-4-(4-hydroxy-3-isopropylbenzyl)-5-methylbenzyl)thio)-N-(pyridazin-3-yl)acetamide], the “ke, observed rate constant” value is “B (ke is greater than 1.0 and less than or equal to 2.5)”.

`C=C(Cc1cc(Cl)c(Cc2ccc(O)c(C(C)C)c2F)c(Cl)c1)C(=O)NC` [Compound 177, 2-(3,5-dichloro-4-(2-fluoro-4-hydroxy-3-isopropylbenzyl)benzyl)-N-methylacrylamide]: the “ke, observed rate constant” value is on record as “NC”. As for `CNC(=O)CNc1cc(Cl)c(Cc2ccc(O)c(C(C)C)c2)c(Cl)c1` [Compound 175, 2-((3,5-dichloro-4-(4-hydroxy-3-isopropylbenzyl)phenyl)amino)-N-methylacetamide], the “ke, observed rate constant” value was “A (ke is equal to or less than 1.0)”. Consider `CNC(=O)CSCc1cc(Cl)c(Cc2ccc(O)c(C(C)C)c2F)c(Cl)c1` [Compound 147, 2-((3,5-dichloro-4-(2-fluoro-4-hydroxy-3-isopropylbenzyl)benzyl)thio)-N-methylacetamide], for which the “ke, observed rate constant” value is listed as “C (ke is greater than 2.5)”.
